Results reported in patent US8835425B2, “Use of selective GABA A α5 negative allosteric modulators for the treatment of central nervous system conditions” (Hoffmann-La Roche Inc., priority 2010, dated 2014).

Columns and labels:
Ts65Dn and control mice [1] = experiment: Sensorimotor test battery; type: in vivo; settings: 20 mg/kg p.o. chronic; for Auditory startle / Equilibrium aluminium bar / Equilibrium wooden bar / Grip strength / Prehensile reflex / Righting reflex / Traction capacity / Vision: mean score; for effect on sensorimotor abilities: Ts65Dn or control mice
Protocol: (§1) For mice studies, active pharmaceutical compounds of present invention were formulated in chocolate-milk (Puleva, Barcelona, Spain). Active pharmaceutical compounds of present invention or vehicle were administered p.o. at a dose of 20 mg/kg for six weeks. Their administration was prolonged during the 30 days of the behavioral assessment.
A battery of sensorimotor tests was performed following the procedure described by Rueda N et al. [Neurosci Leu (2008) 433(1):22-27]. In the visual placing reflex test, cerebellar and vestibular functions were evaluated. […] The response of forepaw extension was scored on a 0-4 scale [4: animal extends the forepaws when placed at the highest height; 3: forepaws extended before touching the surface with vibrissae; 2: forepaws extended after vibrissae touched the surface; 1: forepaws extended after the nose touched the surface; 0: no extension].
To evaluate auditory sensitivity, the startle response to a sudden auditory stimulus was measured. Mice were placed facing the wall of an unfamiliar cage and the auditory stimulus was generated by clapping together two stainless steel forceps (7 cm long). A score (0-3 points) was assigned based on the magnitude of the response: jumping more than 1 cm (3 points); jumping less than 1 cm (2 points); retracting of the ears (Preyer reflex, 1 point); or no response (0 points).
The vibrissa placing reflex was analyzed by noting the reflective reaction to touching the vibrissae with a cotton stick. In three consecutive trials, a score of 1 was assigned to animals that touched the stimulated vibrissae with an ipsilateral paw, and 0 if there was no response. Grip strength was assessed by quantifying the resistance to being separated from a lid of aluminum bars (2 mm), when dragged by the tail (0: no resistance, total loss of grip strength; 1: slight; 2: moderate; 3: active; 4: extremely active resistance, normal grip strength).
In order to evaluate equilibrium, four 20-s trials of balance were performed on an elevated (40 cm high), horizontal (50 cm long) rod. Trials 1 and 2 were performed on a flat wooden rod (9 mm wide); trials 3 and 4 were performed on a cylindrical aluminum rod (1 cm diameter). In each trial, the animals were placed in a marked central zone (10 cm) on the elevated rod. A score of 0 was given if the animal fell within 20 s, 1 if it stayed within the central zone for >20 s, 2 if it left the central zone, and 3 if it reached one of the ends of the bar.
Prehensile reflex (three 5-s trials) was measured as the ability of the animal to remain suspended by the forepaws by grasping an elevated horizontal wire (2 mm in diameter). The maximum possible score of 3 was achieved when the animal remained suspended by the forepaws in all three trials (one point per trial). Traction capacity was scored at the same time by assessing the number of hind limbs that the animal raised to reach the wire (0: none; 1: one limb; 2: two limbs).

human GABA A α3β3γ2 = human GABA A α3β3γ2 (Homo sapiens, UniProt P18507+P34903); experiment: Two-microelectrode voltage clamp, modulation of GABA EC10 response in Xenopus oocytes, α3β3γ2; type: cell-based; set-up: expressed in transfected cells; host or cells: Xenopus laevis oocytes; settings: % change of EC10 GABA response at 3 μM or at 30×Ki if Ki below 0.1 μM
Protocol: (§2) Table 2b. […] Effect at human GABA A α5 receptors: % change of a submaximal (EC10) response to GABA determined at 30×Ki value from the flumazenil binding assay.
(§3) Subtype-selective effects were determined on cloned receptors expressed in Xenopus oocytes. Human recombinant GABA A receptors were expressed in Xenopus laevis oocytes. Current responses were evoked in two-microelectrode voltage-clamp condition by applying an EC10 of GABA before and during the co-application of the test compound. Response amplitudes in the presence of the test compound are expressed as percentage of the amplitudes before drug addition.

Ts65Dn and control mice [2] = experiment: Open field; type: in vivo; settings: mice of either genotype; for horizontal or vertical activity in open field: 20 mg/kg p.o. chronic; for anxiogenic effect (activity in the center of the open field): chronic administration
Protocol: as §1
Exploratory behavior and anxiety were assessed using a square-shaped open field (55 cm×55 cm, surrounded by a 25-cm-tall fence), divided into 25 equal squares. The animals were placed in the center of the field, and the number of vertical (rearing) activities and horizontal crossings (from square to square, subdivided into center vs. peripheral crossings) were scored in a single 5-min trial.

human GABA A α1β2/3γ2 = human GABA A α1β2/3γ2 (Homo sapiens, UniProt P14867+P18507); experiment: [3H]flumazenil competition binding, HEK293 cells expressing human α1β2/3γ2; set-up: expressed in transfected cells; host or cells: HEK293; settings: for Ki: [3H]flumazenil competition, human α1β2/3γ2, read-out: hKi α1; for hKi α1/hKi α5: binding selectivity ratio
human GABA A α5β3γ2 = human GABA A α5β3γ2 (Homo sapiens, UniProt P18507+P31644); experiment: Two-microelectrode voltage clamp, modulation of GABA EC10 response in Xenopus oocytes, α5β3γ2; type: cell-based; set-up: expressed in transfected cells; host or cells: Xenopus laevis oocytes; settings: % change of submaximal (EC10) response to GABA at 30×Ki
Protocol: as §2, §3

Ts65Dn and control mice [3] = experiment: Motor coordination: rotarod; type: in vivo; settings: mice of either genotype, 20 mg/kg p.o. chronic
Protocol: as §1
Motor coordination was evaluated using a rotarod device (Ugo Basile; Comerio, Italy), which consists of a 37-cm-long, 3-cm diameter plastic rod that rotates at different speeds. In a single session, 4 trials with a maximum duration of 60 s each were performed. In the first three tests, the rod was rotated at constant speeds of 5, 25 and 50 rpm, respectively. The last trial consisted of an acceleration cycle, in which the rod rotated progressively faster, and the animal had to adapt to the growing demands of the test. The length of time that each animal stayed on the rotarod was recorded.

| SMILES | Latency arrival coat hanging (Ts65Dn and control mice [1]; Ts65Dn mice) | Latency to fall aluminium bar (Ts65Dn and control mice [1]; Ts65Dn mice) | Latency to fall wooden bar (Ts65Dn and control mice [1]; Ts65Dn mice) | Number of crossings coat hanging (Ts65Dn and control mice [1]; Ts65Dn mice) | Auditory startle (Ts65Dn and control mice [1]; Ts65Dn mice) | Equilibrium aluminium bar (Ts65Dn and control mice [1]; Ts65Dn mice) | Equilibrium wooden bar (Ts65Dn and control mice [1]; Ts65Dn mice) | Grip strength (Ts65Dn and control mice [1]; Ts65Dn mice) | Prehensile reflex (Ts65Dn and control mice [1]; Ts65Dn mice) | Righting reflex (Ts65Dn and control mice [1]; Ts65Dn mice) | Traction capacity (Ts65Dn and control mice [1]; Ts65Dn mice) | Vision (Ts65Dn and control mice [1]; Ts65Dn mice) | effect on sensorimotor abilities (Ts65Dn and control mice [1]) | Latency arrival coat hanging (Ts65Dn and control mice [1]; control mice) | Latency to fall aluminium bar (Ts65Dn and control mice [1]; control mice) | Latency to fall wooden bar (Ts65Dn and control mice [1]; control mice) | Number of crossings coat hanging (Ts65Dn and control mice [1]; control mice) | Auditory startle (Ts65Dn and control mice [1]; control mice) | Equilibrium aluminium bar (Ts65Dn and control mice [1]; control mice) | Equilibrium wooden bar (Ts65Dn and control mice [1]; control mice) | also measured |
| --- | --- | --- | --- | --- | --- | --- | --- | --- | --- | --- | --- | --- | --- | --- | --- | --- | --- | --- | --- | --- | --- |
| FC(F)c1ncn2c1Cn1ncnc1-c1cc(Br)ccc1-2 [Compound 8581, 3-Bromo-10-difluoromethyl-9H-imidazo[1,5-a][1,2,4]triazolo[1,5-d][1,4]benzodiazepine] | 35.44 | 12.11 | 17.77 | 3.33 | 1.33 | 1.00 | 3.55 | 2.00 | 2.67 | 3.00 | 1.67 | 7.67 | did not modify any of the sensorimotor abilities tested | 46.45 | 14.73 | 20.00 | 2.64 | 1.00 | 1.36 | 2.8 | Grip strength (Ts65Dn and control mice [1]; control mice): 1.55; Prehensile reflex (Ts65Dn and control mice [1]; control mice): 2.45; Righting reflex (Ts65Dn and control mice [1]; control mice): 3.00; Traction capacity (Ts65Dn and control mice [1]; control mice): 1.82; Vision (Ts65Dn and control mice [1]; control mice): 7.64; Efficacy GABA A α3β3γ2 (human GABA A α3β3γ2): −1%; horizontal or vertical activity in open field (Ts65Dn and control mice [2]): did not significantly affect; anxiogenic effect (activity in the center of the open field) (Ts65Dn and control mice [2]): did not produce an anxiogenic effect; Ki (human GABA A α1β2/3γ2): 174 nM; hKi α1/hKi α5 (human GABA A α1β2/3γ2): 38; Efficacy GABA A α5β3γ2 (human GABA A α5β3γ2): −46%; motor coordination in the rotarod (Ts65Dn and control mice [3]): not modified |
| Cc1onc(-c2ccc(F)cc2)c1COc1ccc(C(=O)N2CCS(=O)(=O)CC2)cn1 [Compound R1, (1,1-Dioxo-1,6-thiomorpholin-4-yl)-{6-[3-(4-fluoro-phenyl)-5-methyl-isoxazol-4-ylmethoxy]-pyridin-3-yl}-methanone] | 37.37 | 13.71 | 20.00 | 3.19 | 1.31 | 1.13 | 3.19 | 1.75 | 2.75 | 3.00 | 2.50 | 9.19 | did not modify any of the sensorimotor abilities tested | 30.93 | 11.16 | 20.00 | 2.73 | 1.00 | 0.80 | 2.53 | Grip strength (Ts65Dn and control mice [1]; control mice): 2.2; Prehensile reflex (Ts65Dn and control mice [1]; control mice): 2.53; Righting reflex (Ts65Dn and control mice [1]; control mice): 3.00; Traction capacity (Ts65Dn and control mice [1]; control mice): 1.80; Vision (Ts65Dn and control mice [1]; control mice): 8.40; Efficacy GABA A α3β3γ2 (human GABA A α3β3γ2): −2%; horizontal or vertical activity in open field (Ts65Dn and control mice [2]): did not significantly affect; anxiogenic effect (activity in the center of the open field) (Ts65Dn and control mice [2]): did not produce an anxiogenic effect; Ki (human GABA A α1β2/3γ2): 985 nM; hKi α1/hKi α5 (human GABA A α1β2/3γ2): 209; Efficacy GABA A α5β3γ2 (human GABA A α5β3γ2): −39%; motor coordination in the rotarod (Ts65Dn and control mice [3]): not modified |
